Experiments:
[1] = In vitro release of gentamicin (dialysis membrane setup); details: 37° C., PBS pH 7.4, 10.000 MWCO cellulose membrane
[2] = cited from earlier work

Substance: gentamicin
- time at which gentamicin became detectable in the bulk release medium [1]: ≤ 1 min
- time to complete release / permeation of gentamicin [1]: 1.5 h
- pKa [2]: 8.2
